Data on six compounds can be found in patent US20080242663A1, “NOVEL PYRIMIDINE DERIVATIVES 698” (ASTRAZENECA AB, priority 2007, published 2008).

pIC50: −log10 of the molar value.

The target in experiment [1] is T1, recombinant EphB4 (Homo sapiens, UniProt P54760).
T1 construct: amino acids 563-987; Swiss-Prot Acc; No. P54760; purchased ProQinase GmbH 0178-0000-3
T1 sequence (P54760 563-987): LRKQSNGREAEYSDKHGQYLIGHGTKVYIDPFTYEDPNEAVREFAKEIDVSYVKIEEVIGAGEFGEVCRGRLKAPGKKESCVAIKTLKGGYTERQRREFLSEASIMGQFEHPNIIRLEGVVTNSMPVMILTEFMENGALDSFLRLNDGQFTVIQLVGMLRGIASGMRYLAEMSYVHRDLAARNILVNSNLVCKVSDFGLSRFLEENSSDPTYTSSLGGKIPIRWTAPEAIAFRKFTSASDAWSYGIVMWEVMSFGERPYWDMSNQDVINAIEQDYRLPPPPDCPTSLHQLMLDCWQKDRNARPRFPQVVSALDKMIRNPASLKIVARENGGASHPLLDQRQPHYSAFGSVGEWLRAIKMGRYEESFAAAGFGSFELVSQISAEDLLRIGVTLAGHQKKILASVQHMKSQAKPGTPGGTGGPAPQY
The experiment in a line: In vitro EphB4 enzyme assay (Alphascreen). The format is biochemical. Put shortly: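 Recombinant EphB4 phosphorylated biotin-poly-GAT with Mg-ATP for 1 hr at room temperature; EDTA stop, then Alphascreen donor/acceptor (anti-phosphotyrosine) beads for 20 hrs in the dark. After minimum subtraction, signal plotted against compound concentration to derive IC50.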

For experiment [2], the target named is T2, human EphB4 (Homo sapiens, UniProt P54760).
T2 construct: to generate full-length EphB4 containing a Myc-His tag at the C-terminus; expressed in transfected cells; EphB4-CHO)
T2 sequence (P54760 16-987): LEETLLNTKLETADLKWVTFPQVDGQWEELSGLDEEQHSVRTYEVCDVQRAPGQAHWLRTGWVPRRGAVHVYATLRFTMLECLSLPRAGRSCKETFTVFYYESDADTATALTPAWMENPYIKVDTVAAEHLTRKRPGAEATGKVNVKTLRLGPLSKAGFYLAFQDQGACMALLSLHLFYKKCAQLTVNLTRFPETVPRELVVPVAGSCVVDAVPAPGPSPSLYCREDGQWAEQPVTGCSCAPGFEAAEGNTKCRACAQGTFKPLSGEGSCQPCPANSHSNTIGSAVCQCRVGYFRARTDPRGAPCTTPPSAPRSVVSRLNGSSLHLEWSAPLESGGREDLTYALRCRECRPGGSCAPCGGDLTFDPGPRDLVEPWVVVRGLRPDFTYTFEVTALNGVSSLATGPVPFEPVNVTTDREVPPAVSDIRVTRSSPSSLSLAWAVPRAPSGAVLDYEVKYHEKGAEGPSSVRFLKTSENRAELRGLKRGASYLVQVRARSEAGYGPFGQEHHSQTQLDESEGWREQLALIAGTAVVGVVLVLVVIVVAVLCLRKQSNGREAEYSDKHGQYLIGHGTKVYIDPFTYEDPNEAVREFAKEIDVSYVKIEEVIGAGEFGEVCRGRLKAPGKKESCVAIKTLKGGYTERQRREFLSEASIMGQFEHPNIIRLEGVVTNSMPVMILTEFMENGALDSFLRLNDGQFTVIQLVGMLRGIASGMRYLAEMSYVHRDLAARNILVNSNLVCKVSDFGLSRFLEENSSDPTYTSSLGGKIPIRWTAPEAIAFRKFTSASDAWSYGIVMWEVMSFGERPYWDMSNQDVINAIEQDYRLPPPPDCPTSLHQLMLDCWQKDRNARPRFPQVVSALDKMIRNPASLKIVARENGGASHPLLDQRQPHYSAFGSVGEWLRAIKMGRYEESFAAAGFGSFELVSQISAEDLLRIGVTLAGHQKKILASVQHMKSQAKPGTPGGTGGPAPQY
Description: In vitro EphB4 cell assay (EphB4 phosphorylation in EphB4-CHO cells, sandwich ELISA). The format is cell-based. The settings on record: Assay B. The method, then:
The assay identifies inhibitors of cellular EphB4 by measuring a decrease in phosphorylation of EphB4 following treatment of cells with compound. The endpoint assay used a sandwich ELISA to detect EphB4 phosphorylation status. Briefly, Myc-tagged EphB4 from treated cell lysate was captured on the ELISA plate via an anti-c-Myc antibody. The phosphorylation status of captured EphB4 was then measured using a generic phosphotyrosine antibody conjugated to HRP via a colourimetric output catalysed by HRP, with level of EphB4 phosphorylation directly proportional to the colour intensity. Absorbance was measured spectrophotometrically at 450 nm.
Full length human EphB4 (Swiss-Prot Acc. No. P54760) was cloned using standard techniques from cDNA prepared from HUVEC using RT-PCR. The cDNA fragment was then sub-cloned into a pcDNA3.1 expression vector containing a Myc-His epitope tag to generate full-length EphB4 containing a Myc-His tag at the C-terminus (Invitrogen Ltd. Paisley, UK). […] CHO-K1 cells were engineered to stably express the EphB4-Myc-His construct using standard stable transfection techniques, to generate cells hereafter termed EphB4-CHO.
On day 2, the cells were incubated overnight in 90 μl/well of media containing 0.1% Hyclone stripped-serum (Fisher Scientific UK, Catalogue No. SH30068.02). […] A 10 μl aliquot of each compound dilution was transferred to the cell plates in duplicate wells, and the cells incubated for 1 hr at 37° C.
Following compound treatment, cells were stimulated with clustered ephrin-B2 at a final concentration of 1 μg/ml for 20 minutes at 37° C. to induce EphB4 phosphorylation. Following stimulation, the medium was removed and the cells lysed in 100 μl/well of lysis buffer (25 mM Tris HCl, 3 mM EDTA, 3 mM EGTA, 50 mM NaF, 2 mM orthovanadate, 0.27M Sucrose, 10 mM β-glycerophosphate, 5 mM sodium pyrophosphate, 2% Triton X-100, pH 7.4).
Plates were washed twice with PBS/0.05% Tween-20 and incubated with 100 μl/well cell lysate overnight at 4° C. […] ELISA plates were washed four times with PBS/0.05% Tween-20 and developed with 100 μl/well TMB substrate (Sigma-Aldrich Company Ltd, Catalogue No. T0440). The reaction was stopped after 15 minutes with the addition of 25 μl/well 2M sulphuric acid. The absorbances were determined at 450 nm using the Tecan SpectraFluor Plus. The minimum value was subtracted from all values, and the signal plotted against compound concentration to generate IC50 data.
Background: In an ELISA, binding on a coated surface is turned into a signal by an enzyme label.

Experiment [3] has as its system Human Colorectal cancer cells (HT29). The experiment in a line: In vivo tumour explant model. More on the design: species or system nude male mice (nu/nu:Alpk). The settings on record: HT29 tumours in nude mice, 100 mg/kg b.i.d. orally, 16 consecutive days. How it is done: Human Colorectal cancer cells (HT29 5×10^6 (ATCC HTB-38)) were implanted subcutaneously on to the left flank of nude male mice (nu/nu:Alpk). Actively growing tumours approx 0.2-0.3 cm^3 were selected and randomised. […] Tumours were measured twice weekly and volumes (cm^3) calculated (π/6×(length×width×width)/1000). On the final day of the dosing the tumours were measured, percent growth inhibition was then calculated compared to the control ((([…]-1))*100), where GMDV is the geometric delta volume of either treated (T) or control (C), and a T-Test was performed to establish significance.

Take `CC(C)OCc1cc(Nc2nccc(N(C)c3ccc(F)c(Cl)c3F)n2)cc(N2CCOCC2)c1` [Example 2.15, N′-(3-chloro-2,4-difluoro-phenyl)-N′-methyl-N-[3-morpholin-4-yl-5-(propan-2-yloxymethyl)phenyl] pyrimidine-2,4-diamine]: the pIC50 (in general, the IC50 on a negative log10 scale, so that one unit is a factor of ten) is 5.95 in experiment [1] and 7.77 in experiment [2].
For the compound `Cc1ccc(CO)cc1N(C)c1ccnc(Nc2cc(N3CCOCC3)cc(N3CCOCC3)c2)n1` [[3-[[2-[(3,5-dimorpholin-4-ylphenyl)amino]pyrimidin-4-yl]-methyl-amino]-4-methyl-phenyl]methanol], the tumour volume entry in experiment [3] is “reducing tumour volume”.
Regarding `CN(c1ccnc(Nc2cc(CN3CCCC3)cc(N3CCOCC3)c2)n1)c1ccc(F)c(Cl)c1F` [Example 2.17, N′-(3-chloro-2,4-difluoro-phenyl)-N′-methyl-N-[3-morpholin-4-yl-5-(pyrrolidin-1-ylmethyl)phenyl]py-rimidine-2,4-diamine], the pIC50 is 7.54 in experiment [1] and 7.68 in experiment [2].
For `CN(c1ccnc(Nc2cc(F)cc(N3CCOCC3)c2)n1)c1ccc(F)c(Cl)c1F` [Example 2.2, N′-(3-chloro-2,4-difluoro-phenyl)-N-(3-fluoro-5-morpholin-4-yl-phenyl)-N′-methyl-pyrimidine-2,4-diamine] the same measures were 5.66 and 7.13.
For `CN(c1ccnc(Nc2cc(N3CCCOCC3)cc(N3CCOCC3)c2)n1)c1ccc(F)c(Cl)c1F` [Example 2.10, N′-(3-chloro-2,4-difluoro-phenyl)-N′-methyl-N-[3-morpholin-4-yl-5-(1,4-oxazepan-4-yl)phenyl]pyrimidine-2,4-diamine] the same measures were 5.90 and 7.96.
For `CN1CCN(c2cccc(Nc3nccc(N(C)c4ccc(F)c(Cl)c4F)n3)c2)CC1` [Example 4, N′-(3-chloro-2,4-difluoro-phenyl)-N′-methyl-N-[3-(4-methylpiperazin-1-yl)phenyl]pyrimidine-2,4-diamine], the pIC50 in experiment [1] is 7.20; in experiment [2], 5.77.
